Assay type in all cases: cell-based
Assay [1] concerns SMMC-7721 (Liver Cancer). Put plainly: SRB assay, SMMC-7721. Conditions: Homo sapiens, 72 h, read-out: IC50 (μM) (mean ± SD). The procedure:
(§1) Experimental method: The antineoplasmic activities in vitro of the compounds were determined by SRB assay. The detailed procedure was as follows. The cells in the logarithmic growth phase were inoculated on a 96-well microculture plate with a suitable density (100 μl/well), and allowed to attach overnight, followed by addition of the compound at different concentrations to be treated for 72 h. For each concentration, the test was carried out in triplicate wells, and included control wells containing the aqueous medium of normal saline and a blank well containing all medium without cells for zeroing. After cultured overnight, the cells were treated with the compound at different concentrations for 72 h. After the treatment, the culture medium was removed, and the cells were fixed with 10% (wt/vol) trichloroacetic acid (100 μL/well) at 4° C. for 1 h. The cells were then washed with distilled water for 5 times, and died at room temperature, followed by addition of a SRB solution (4 mg/mL, dissolved in 1% glacial acetic acid) at 100 μL/well. The cells were incubated and stained at room temperature for 15 min, then washed with 1% glacial acetic acid for 5 times to remove the uncombined SRB, and died at room temperature. 100 μL of 10 mM Tris solution was added in each well, and the Optical Density (OD) were measured at a wavelength of 560 nm on a VERSMax ELISA Reader (Molecule Devices). The growth inhibition of the compound against tumor cells was calculated according to the following equation: Growth inhibition (%)=(ODcontrol−ODtreated)/ODcontrol×100%.
(§2) IC50 (the concentration of the sample compound that is required for 50% inhibition of cell growth) was calculated by using the Logit method based on the measurement, and each test was repeated for 3 times to calculate the mean value and standard deviation.
Background: In SRB staining, fixed cells bind dye roughly in proportion to their protein.

Assay [2] concerns HepG2 (Liver Cancer). Put plainly: SRB assay, HepG2. The following applies: Homo sapiens, 72 h, read-out: IC50 (μM) (mean ± SD). As for the experimental part: as §1, §2
The test system of assay [3] is Zip177 (Liver Cancer). Put plainly: SRB assay, Zip177. The following applies: 72 h, read-out: IC50 (μM) (mean ± SD). The procedure: as §1, §2
Assay [4] relates to DU145 (Prostatic Cancer). Put plainly: SRB assay, DU145. Conditions: Homo sapiens, DU-145, 72 h, read-out: IC50 (μM) (mean ± SD). As for the experimental part:
as §1, §2

For assay [5], the system named is A549 (Lung Cancer). Put plainly: SRB assay, A549. The following applies: Homo sapiens, 72 h, read-out: IC50 (μM) (mean ± SD). As for the experimental part:
as §1, §2

The test system of assay [6] is HMEC (Others). In words: SRB assay, HMEC. Conditions: Homo sapiens, 72 h, read-out: IC50 (μM) (mean ± SD). The procedure: as §1, §2
The test system of assay [7] is HPAF-II (Pancreatic Cancer). In words: SRB assay, HPAF-II. Conditions: Homo sapiens, 72 h, read-out: IC50 (μM) (mean ± SD). As for the experimental part:
as §1, §2

Assay [8] concerns Hela uterine cervix cancer cells. In words: MTT assay, Hela cells. The following applies: Homo sapiens, 72 h, 1000 cells per well. As for the experimental part:
The adhered MDA-MB-4355 cells in logarithmic growth phase, were digested by 0.05% trypsogen, counted and formulated into a cell suspension with a medium. After counted, the suspension was inoculated on a 96-well plate with 3000 cells and 100 μl medium per well. The inoculated 96-well plate was placed overnight in an incubator at 37 with 5% CO2 to allow the cells to adhere to the wall. On the next day, the administration of the drugs started. Before the administration, into some of the control wells, each was added 20 μl of the MTT solution (5 mg/ml) without removing the medium therein. After incubated for 3 h, the absorption at A550/690 was recorded as the initial cell concentration. For the drug wells, each was added into 100 μl of medium containing 2 μl of compound solution. For the control wells which use DMSO as background control, each was also added into 100 μl of medium containing 2 μl of DMSO. In addition, each experiment was carried out with adriamycin as the positive control. Subsequently, the 96-well plate was incubated in an incubator at 37 with 5% CO2 for 72 h. each compound was tested in triplicate wells (6 μl of compound solution was put into a sterilized eppendorf centrifuge tube, then 300 μl of medium was added and mixed well, and the mixture was distributed into 3 wells respectively), and at six concentrations which form a gradient. 3 days (72 h) later, 40 μl of MTT solution (5 mg/ml) was put into each well directly (without sucking off the medium therein), and the plate was incubated in the incubator for 3 h and then taken out. The liquid in each well was sucked off, and then 100 μl of DMSO was put into each well to dissolve the crystal completely with slight shake. The absorbance of the solution in each well was determined at 550/690 nm on an ELISA Reader as the cell density after treated with the compound. The growth inhibition of compound against breast cancer cells MDA-MB-435S was represented by the cell survival rate, and IC50 was determined from the profile of cell survival rate vs compound concentration. The calculating formula was as follows: cell survival rate=[(cells+compound)A550/690/(cells+compound vector DMSO)A550/690]×100%
MDA-MB-435S: human breast cancer cells; HCT116: colon cancer cells; A549: lung adenocarcinoma cells; Hela: uterine cervix cancer cells.
The tests were performed in the same manner as that of experimental example 1, except that for Hela cells, after counted, each well was seeded with 1000 cells and 100 μl of medium on a 96-well plate.
(In general: Tetrazolium assays rely on reduction of a dye to a coloured formazan, in cell work by metabolically active cells.)

Consider `CO[C@@H](C(=O)N[C@@H](C)C(=O)NCCOC(=O)C12CC3CC(CC(C3)C1)C2)[C@H](O)[C@@H](O)[C@H](O)/C=C/C(C)(C)C` [Compound L538], for which the IC50 (as a rule, the concentration at which inhibition is half-maximal) in assay [1] was 0.58 ± 0.04 µM; in assay [2] it was 0.45 ± 0.07 µM; in assay [3], 0.37 ± 0.06 µM; in assay [4] it was 0.14 ± 0.04 µM; in assay [5] it was 0.02 ± 0.004 µM; in assay [6], 0.17 ± 0.06 µM. Also, the 50% inhibitory concentration (IC50) came out at 0.65 ± 0.21 µM in assay [7] and 91 ± 19 nM in assay [8].

The record behind these values is patent US8470763B2, “Alpha-amino-N-substituted amides, pharmaceutical composition containing them and uses thereof” (Shanghai Institute of Materia Medica Chinese Academy of …, priority 2007, dated 2013).
